Target: T1, PfMDH (Plasmodium falciparum, UniProt Q6VVP7)
T1 construct: The full-length WT PfMDH gene was cloned into pETM-13; made in house; host or cells: E. coli Rosetta 2 (DE3) pLysS
Assay: Thermal shift assay (TSA)
Assay type: binding
Details: for TSA melting curve raw signal: triplicate columns; for TSA melting curve raw fluorescence signal: three replicate columns
In short: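 10 μM PfMDH with 1 mM compound in 100 mM Na–phosphate pH 7.4, 400 mM NaCl, 10× Sypro Orange; 1% DMSO controls. Melting inflection points taken as Tm; shifts >1 °C read as stabilization, negative shifts as destabilization.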

T1 sequence (Q6VVP7 entry or part of it): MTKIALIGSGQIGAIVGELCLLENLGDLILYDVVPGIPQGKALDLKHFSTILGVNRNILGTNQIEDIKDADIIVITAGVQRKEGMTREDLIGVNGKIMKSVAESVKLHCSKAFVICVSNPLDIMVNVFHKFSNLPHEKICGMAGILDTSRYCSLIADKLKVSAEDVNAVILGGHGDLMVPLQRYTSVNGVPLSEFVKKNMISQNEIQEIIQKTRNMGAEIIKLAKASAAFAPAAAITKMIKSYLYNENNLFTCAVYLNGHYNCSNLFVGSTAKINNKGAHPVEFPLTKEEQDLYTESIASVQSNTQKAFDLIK

Nc1nc(-c2cccc(C(F)(F)F)c2)cs1 [4PA-CF3]
TSA melting curve raw signal (Temperature 25): 3528,09586476992
TSA melting curve raw signal (Temperature 25.5): 3521,76972099321
TSA melting curve raw signal (Temperature 26): 3515,44357721651
TSA melting curve raw signal (Temperature 26.5): 3509,11743343981
TSA melting curve raw signal (Temperature 27): 3502,7912896631
TSA melting curve raw signal (Temperature 27.5): 3496,46514588642
TSA melting curve raw signal (Temperature 28): 3490,13900210971
TSA melting curve raw signal (Temperature 28.5): 3483,6143624971
TSA melting curve raw signal (Temperature 29): 3476,38988350175
TSA melting curve raw signal (Temperature 29.5): 3468,17176134374
TSA melting curve raw signal (Temperature 30): 3458,89345122044
TSA melting curve raw signal (Temperature 30.5): 3449,61666086928
TSA melting curve raw signal (Temperature 31): 3441,08813548452
TSA melting curve raw signal (Temperature 31.5): 3434,74480463775
TSA melting curve raw signal (Temperature 32): 3431,63306422988
TSA melting curve raw signal (Temperature 32.5): 3433,04755783933
TSA melting curve raw signal (Temperature 33): 3439,08846015031
TSA melting curve raw signal (Temperature 33.5): 3450,49167244057
TSA melting curve raw signal (Temperature 34): 3467,07326310557
TSA melting curve raw signal (Temperature 34.5): 3489,23124555062
TSA melting curve raw signal (Temperature 35): 3516,74965348479
TSA melting curve raw signal (Temperature 35.5): 3550,12307997406
TSA melting curve raw signal (Temperature 36): 3588,6701161146
TSA melting curve raw signal (Temperature 36.5): 3632,52278047685
TSA melting curve raw signal (Temperature 37): 3681,13015232277
TSA melting curve raw signal (Temperature 37.5): 3734,10747497721
TSA melting curve raw signal (Temperature 38): 3790,66694872421
TSA melting curve raw signal (Temperature 38.5): 3851,32307413445
TSA melting curve raw signal (Temperature 39): 3915,60016677996
TSA melting curve raw signal (Temperature 39.5): 3983,88715310611
TSA melting curve raw signal (Temperature 40): 4056,33336034943
TSA melting curve raw signal (Temperature 40.5): 4133,49326014565
TSA melting curve raw signal (Temperature 41): 4215,01497025314
TSA melting curve raw signal (Temperature 41.5): 4301,78127396551
TSA melting curve raw signal (Temperature 42): 4393,43575455581
TSA melting curve raw signal (Temperature 42.5): 4490,37169124646
TSA melting curve raw signal (Temperature 43): 4592,69941738304
TSA melting curve raw signal (Temperature 43.5): 4701,32966638299
TSA melting curve raw signal (Temperature 44): 4815,85327556672
TSA melting curve raw signal (Temperature 44.5): 4937,62413315095
TSA melting curve raw signal (Temperature 45): 5067,14562465788
TSA melting curve raw signal (Temperature 45.5): 5204,83599333482
TSA melting curve raw signal (Temperature 46): 5349,70118139591
TSA melting curve raw signal (Temperature 46.5): 5501,84311892238
TSA melting curve raw signal (Temperature 47): 5660,17327748149
TSA melting curve raw signal (Temperature 47.5): 5824,5723421521
TSA melting curve raw signal (Temperature 48): 5994,36303099828
TSA melting curve raw signal (Temperature 48.5): 6169,71492788648
TSA melting curve raw signal (Temperature 49): 6349,90301622462
TSA melting curve raw signal (Temperature 49.5): 6533,67708046246
TSA melting curve raw signal (Temperature 50): 6718,43346697938
TSA melting curve raw signal (Temperature 50.5): 6903,01197489117
TSA melting curve raw signal (Temperature 51): 7086,14140810373
TSA melting curve raw signal (Temperature 51.5): 7267,40973427596
TSA melting curve raw signal (Temperature 52): 7446,07311090688
TSA melting curve raw signal (Temperature 52.5): 7623,17790419487
TSA melting curve raw signal (Temperature 53): 7798,35186729642
TSA melting curve raw signal (Temperature 53.5): 7971,57187818721
TSA melting curve raw signal (Temperature 54): 8142,18042787582
TSA melting curve raw signal (Temperature 54.5): 8310,47539211232
TSA melting curve raw signal (Temperature 55): 8475,6367965612
TSA melting curve raw signal (Temperature 55.5): 8637,15264587991
TSA melting curve raw signal (Temperature 56): 8794,24720730786
TSA melting curve raw signal (Temperature 56.5): 8944,76644495546
TSA melting curve raw signal (Temperature 57): 9087,23982318044
TSA melting curve raw signal (Temperature 57.5): 9218,83300839243
TSA melting curve raw signal (Temperature 58): 9336,46564098951
TSA melting curve raw signal (Temperature 58.5): 9436,67708833889
TSA melting curve raw signal (Temperature 59): 9517,94306567009
TSA melting curve raw signal (Temperature 59.5): 9577,90589829803
TSA melting curve raw signal (Temperature 60): 9615,75986877433
TSA melting curve raw signal (Temperature 60.5): 9632,47637998784
TSA melting curve raw signal (Temperature 61): 9629,58012627007
TSA melting curve raw signal (Temperature 61.5): 9608,67157988917
TSA melting curve raw signal (Temperature 62): 9572,5500875914
TSA melting curve raw signal (Temperature 62.5): 9524,64551903011
TSA melting curve raw signal (Temperature 63): 9467,03768559296
TSA melting curve raw signal (Temperature 63.5): 9402,51349679748
TSA melting curve raw signal (Temperature 64): 9333,57184164816
TSA melting curve raw signal (Temperature 64.5): 9261,62563971527
TSA melting curve raw signal (Temperature 65): 9187,49083186044
TSA melting curve raw fluorescence signal (Temperature 65.5): 9112,23978010048
TSA melting curve raw fluorescence signal (Temperature 66): 9036,14068242361
TSA melting curve raw fluorescence signal (Temperature 66.5): 8959,64465212255
TSA melting curve raw fluorescence signal (Temperature 67): 8882,7175782058
TSA melting curve raw fluorescence signal (Temperature 67.5): 8805,44643012468
TSA melting curve raw fluorescence signal (Temperature 68): 8728,2852860298
TSA melting curve raw fluorescence signal (Temperature 68.5): 8651,13021944227
TSA melting curve raw fluorescence signal (Temperature 69): 8573,32870649645
TSA melting curve raw fluorescence signal (Temperature 69.5): 8495,58180428762
TSA melting curve raw fluorescence signal (Temperature 70): 8418,5896254098
TSA melting curve raw fluorescence signal (Temperature 70.5): 8341,60149220391
TSA melting curve raw fluorescence signal (Temperature 71): 8265,01816022305
TSA melting curve raw fluorescence signal (Temperature 71.5): 8189,69867306721
TSA melting curve raw fluorescence signal (Temperature 72): 8115,16555879573
TSA melting curve raw fluorescence signal (Temperature 72.5): 8040,74958248259
TSA melting curve raw fluorescence signal (Temperature 73): 7967,12767450409
TSA melting curve raw fluorescence signal (Temperature 73.5): 7893,92662128296
TSA melting curve raw fluorescence signal (Temperature 74): 7821,33430208039
TSA melting curve raw fluorescence signal (Temperature 74.5): 7749,70992701054
TSA melting curve raw fluorescence signal (Temperature 75): 7679,18807246448
TSA melting curve raw fluorescence signal (Temperature 75.5): 7609,86094414536
TSA melting curve raw fluorescence signal (Temperature 76): 7542,08165155543
TSA melting curve raw fluorescence signal (Temperature 76.5): 7475,0463497461
TSA melting curve raw fluorescence signal (Temperature 77): 7409,10099573983
TSA melting curve raw fluorescence signal (Temperature 77.5): 7344,43096825342
TSA melting curve raw fluorescence signal (Temperature 78): 7280,55827608543
TSA melting curve raw fluorescence signal (Temperature 78.5): 7217,66024170967
TSA melting curve raw fluorescence signal (Temperature 79): 7156,47260834302
TSA melting curve raw fluorescence signal (Temperature 79.5): 7096,07409325447
TSA melting curve raw fluorescence signal (Temperature 80): 7036,61045690039
TSA melting curve raw fluorescence signal (Temperature 80.5): 6978,28713486927
TSA melting curve raw fluorescence signal (Temperature 81): 6920,87145232924
TSA melting curve raw fluorescence signal (Temperature 81.5): 6863,63731764689
TSA melting curve raw fluorescence signal (Temperature 82): 6807,28937755567
TSA melting curve raw fluorescence signal (Temperature 82.5): 6751,29328141381
TSA melting curve raw fluorescence signal (Temperature 83): 6695,78422169472
TSA melting curve raw fluorescence signal (Temperature 83.5): 6641,03413791343
TSA melting curve raw fluorescence signal (Temperature 84): 6587,1569082437
TSA melting curve raw fluorescence signal (Temperature 84.5): 6533,84298175497
TSA melting curve raw fluorescence signal (Temperature 85): 6481,33407729233
TSA melting curve raw fluorescence signal (Temperature 85.5): 6429,30339853042
TSA melting curve raw fluorescence signal (Temperature 86): 6377,40763821637
TSA melting curve raw fluorescence signal (Temperature 86.5): 6325,81148238932
TSA melting curve raw fluorescence signal (Temperature 87): 6274,52300647726
TSA melting curve raw fluorescence signal (Temperature 87.5): 6222,85213595833
TSA melting curve raw fluorescence signal (Temperature 88): 6171,16491119654
TSA melting curve raw fluorescence signal (Temperature 88.5): 6119,12156951999
TSA melting curve raw fluorescence signal (Temperature 89): 6066,61924971662
TSA melting curve raw fluorescence signal (Temperature 89.5): 6013,73939632859
TSA melting curve raw fluorescence signal (Temperature 90): 5961,79604131278
TSA melting curve raw fluorescence signal (Temperature 90.5): 5910,31866711244
TSA melting curve raw fluorescence signal (Temperature 91): 5859,96386783167
TSA melting curve raw fluorescence signal (Temperature 91.5): 5810,60393842017
TSA melting curve raw fluorescence signal (Temperature 92): 5761,96047868944
TSA melting curve raw fluorescence signal (Temperature 92.5): 5713,35101332965
TSA melting curve raw fluorescence signal (Temperature 93): 5664,77915169386
TSA melting curve raw fluorescence signal (Temperature 93.5): 5615,83290965879
TSA melting curve raw fluorescence signal (Temperature 94): 5566,24729616446
TSA melting curve raw fluorescence signal (Temperature 94.5): 5516,6627489992
TSA melting curve raw fluorescence signal (Temperature 95): 5465,82751388956
